Experimental data taken from US6858625B1, “Quinolinecarboxylic acid derivative or salts thereof” (Wakunaga Pharmaceutical Co., Ltd., priority 1999, dated 2005).
Values after ≈ are worked out from the molar mass of the structure shown.

Assays:
B. subtilis ATCC6633 = experiment: Minimum growth inhibitory concentration (MIC), standard method of the Japan Society of Chemotherapy; assay type: cell-based; conditions: Bacillus subtilis
Procedure: (§1) Their minimum growth inhibitory concentrations (MICs: μg/mL) were determined in accordance with the standard method of the Japan Society of Chemotherapy [Chemotherapy, 29(1), 76 (1981)].

S. aureus 209P = experiment: as above; assay type: cell-based; conditions: Staphylococcus aureus
Procedure: as §1

E. faecalis IFO12580 = experiment: as above; assay type: cell-based; conditions: Enterococcus faecalis
Procedure: as §1

S. epidermidis IFO12293 = experiment: as above; assay type: cell-based; conditions: Staphylococcus epidermidis
Procedure: as §1

MRSA W200 = experiment: as above; assay type: cell-based; conditions: Staphylococcus aureus
Procedure: as §1

S. marcescens IFO3736 = experiment: as above; assay type: cell-based; conditions: Serratia marcescens
Procedure: as §1

P. aeruginosa IFO3445 = experiment: as above; assay type: cell-based; conditions: Pseudomonas aeruginosa
Procedure: as §1

E. coli NIHJ-JC2 = experiment: as above; assay type: cell-based; conditions: Escherichia coli, NIHJJC2
Procedure: as §1

P. aeruginosa E-2 = experiment: as above; assay type: cell-based; conditions: Pseudomonas aeruginosa, E2
Procedure: as §1

K. pneumoniae KC-1 = experiment: as above; assay type: cell-based; conditions: Klebsiella pneumoniae, KC1
Procedure: as §1

M. luteus IFO12708 = experiment: as above; assay type: cell-based; conditions: Micrococcus luteus
Procedure: as §1

P. vulgaris IFO3167 = experiment: as above; assay type: cell-based; conditions: Proteus vulgaris
Procedure: as §1

[1] = In vivo pharmacokinetic study (absorption and excretion in dogs); design: species or system beagles; conditions: for AUC(0-t) / Cmax / Tmax / half-life / Urinary excretion rate: male beagles, per os; for AUC(0-t) / Cmax / Tmax / half-life: 10 mg/mL/kg in 0.5% methyl cellulose; for Urinary excretion rate: 10 mg/mL/kg, urine up to 24th hour
Procedure: An investigation was made on the absorption and excretion of the compounds of the present invention in and from dogs. A 0.5% suspension of one of the test compounds in methyl cellulose (10 mg/mL/kg) was forcedly administered per os to 2-4 years old, male beagles fasted for 16 to 17 hours. After the administration, blood samples were collected on the 0.25th, 0.5th, 1st, 2nd, 4th, 6th, 8th and 24th hours, and serum samples were obtained. To determine urinary excretion rates, urine samples were also collected up to 24th hour after the administration. The concentrations of the test compound in the serum samples and urine samples were measured by the paper disk method making use of Bacillus subtilis ATCC6633 as a test bacterium, and the absorption and excretion were ranked.

[2] = Phototoxicity test (ear abnormality after UV exposure); assay type: in vivo, ICR mice; conditions: 40 mg/kg i.v., 4 h UV 320-400 nm; for Ear abnormality (point): 0 = no abnormality to 3 = severe erythema or edema; for Ear abnormality (frequency): affected/total mice
Procedure: A phototoxicity test was performed by the following procedure. Female ICR mice (5 to 6 weeks old) were intravenously administered with the test compounds (40 mg/kg/10 mL), respectively, and were exposed for 4 hours to ultraviolet rays (320 to 400 nm, 1.8 mW/cm^2/sec). […] Ear abnormality was ranked by the following standards: no abnormality (0 point), mild erythema (1 point), medium erythema (2 points), and severe erythema or edema (3 points) The results are presented in Table 2.

[3] = tested on: Isolated coccus 1 (clinically-isolated quinolone resistant pneumococci); experiment: MIC against clinically-isolated quinolone resistant pneumococci, agar plates with 5% defibrinated sheep blood; assay type: cell-based; conditions: Isolated coccus 1, quinolone resistant pneumococcus
Procedure: (§2) Using agar plates added with 5% defibrinated sheep blood, minimum growth inhibition concentrations (MICs; μg/mL) against certain pneumococci were determined in accordance with the standard method of the Japan Society of Chemotherapy [Chemotherapy, 29(1), 76 (1981)].

[4] = tested on: Isolated coccus 5 (clinically-isolated quinolone resistant pneumococci); experiment: as above; assay type: cell-based; conditions: Isolated coccus 5, quinolone resistant pneumococcus
Procedure: as §2

[5] = beagle, dog, po, 10 mg/kg, serum

MIC (B. subtilis ATCC6633)	MIC (S. aureus 209P)	MIC (E. faecalis IFO12580)	MIC (S. epidermidis IFO12293)	MIC (MRSA W200)	MIC (S. marcescens IFO3736)	MIC (P. aeruginosa IFO3445)	MIC (E. coli NIHJ-JC2)	MIC (P. aeruginosa E-2)	MIC (K. pneumoniae KC-1)	MIC (M. luteus IFO12708)	MIC (P. vulgaris IFO3167)	AUC(0-t) [1, 5]	Cmax [1, 5]	Tmax [1, 5]	half-life [1, 5]	Urinary excretion rate [1]	Compound	Ear abnormality (point) ([2]; 0 hour after exposure)	Ear abnormality (frequency) ([2]; 0 hour after exposure)	Ear abnormality (point) ([2]; 24 hours after exposure)	also measured
0.05 µg/mL (≈ 0.1 µM)	0.013 µg/mL (≈ 0.0261 µM)	0.39 µg/mL (≈ 0.783 µM)	0.05 µg/mL (≈ 0.1 µM)	0.025 µg/mL (≈ 0.0502 µM)	1.56 µg/mL (≈ 3.13 µM)	0.39 µg/mL (≈ 0.783 µM)	0.013 µg/mL (≈ 0.0261 µM)	0.78 µg/mL (≈ 1.57 µM)	0.025 µg/mL (≈ 0.0502 µM)	0.39 µg/mL (≈ 0.783 µM)	0.1 µg/mL (≈ 0.201 µM)	8540 ng·h/mL	2350 ng/mL	0.5 h	2 h	14.8%	CNC1CN(c2c(F)cc3c(=O)c(C(=O)O)cn(-c4nc(N)c(F)cc4F)c3c2Br)C1 [Comparative Compound 1, 1-(6-amino-3,5-difluoropyridin-2-yl)-8-bromo-7-(3-methylaminoazetidin-1-yl)-6-fluoro-4-oxo-1,4-dihydroquinoline-3-carboxylic acid]	0 point	0/3	0 point	Ear abnormality (frequency) ([2]; 24 hours after exposure): 0/3; Ear abnormality (point) ([2]; 48 hours after exposure): 0 point; Ear abnormality (frequency) ([2]; 48 hours after exposure): 0/3; MIC [3]: 0.06 µg/mL (≈ 0.12 µM); MIC [4]: 0.5 µg/mL (≈ 1 µM)
0.1 µg/mL (≈ 0.277 µM)	0.2 µg/mL (≈ 0.553 µM)	1.56 µg/mL (≈ 4.32 µM)	0.78 µg/mL (≈ 2.16 µM)	0.39 µg/mL (≈ 1.08 µM)	0.78 µg/mL (≈ 2.16 µM)	0.78 µg/mL (≈ 2.16 µM)	0.05 µg/mL (≈ 0.138 µM)	1.56 µg/mL (≈ 4.32 µM)	0.1 µg/mL (≈ 0.277 µM)	0.78 µg/mL (≈ 2.16 µM)	0.05 µg/mL (≈ 0.138 µM)						C[C@H]1COc2c(N3CCN(C)CC3)c(F)cc3c(=O)c(C(=O)O)cn1c23 [LVFX, S(−)-9-fluoro-2,3-dihydro-3-methyl-10-(4-methyl-1-piperazinyl)-7-oxo-7H-pyrido[1,2,3-de][1,4]benzoxazine-6-carboxylic acid]				MIC [3]: 2 µg/mL (≈ 5.53 µM); MIC [4]: 32 µg/mL (≈ 88.6 µM)

Further lines, the molecule ahead of its results:

Compound	MIC (B. subtilis ATCC6633)	MIC (S. aureus 209P)	MIC (E. faecalis IFO12580)	MIC (S. epidermidis IFO12293)	MIC (MRSA W200)	MIC (S. marcescens IFO3736)	MIC (P. aeruginosa IFO3445)	MIC (E. coli NIHJ-JC2)	MIC (P. aeruginosa E-2)	MIC (K. pneumoniae KC-1)	MIC (M. luteus IFO12708)	MIC (P. vulgaris IFO3167)	AUC(0-t) [1, 5]	Cmax [1, 5]	Tmax [1, 5]	half-life [1, 5]	Urinary excretion rate [1]	Ear abnormality (point) ([2]; 0 hour after exposure)	Ear abnormality (frequency) ([2]; 0 hour after exposure)	Ear abnormality (point) ([2]; 24 hours after exposure)	also measured
O=C(O)c1cn(C2CC2)c2cc(N3CCNCC3)c(F)cc2c1=O [CPFX, 1-cyclopropyl-6-fluoro-7-(1-piperadinyl)-1,4-dihydro-4-oxoquinoline-3-carboxylic acid]	0.05 µg/mL (≈ 0.151 µM)	0.2 µg/mL (≈ 0.604 µM)	1.56 µg/mL (≈ 4.71 µM)	1.56 µg/mL (≈ 4.71 µM)	0.78 µg/mL (≈ 2.35 µM)	0.2 µg/mL (≈ 0.604 µM)	0.39 µg/mL (≈ 1.18 µM)	0.025 µg/mL (≈ 0.0754 µM)	0.78 µg/mL (≈ 2.35 µM)	0.05 µg/mL (≈ 0.151 µM)	3.13 µg/mL (≈ 9.45 µM)	0.05 µg/mL (≈ 0.151 µM)									
CCNC1CN(c2c(F)cc3c(=O)c(C(=O)O)cn(-c4nc(N)c(F)cc4F)c3c2Cl)C1 [Comparative Compound 2, 1-(6-amino-3,5-difluoro-pyridin-2-yl)-8-chloro-7-(3-ethylaminoazetidin-1-yl)-6-fluoro-4-oxo-1,4-dihydroquinoline-3-carboxylic acid]	0.025 µg/mL (≈ 0.0534 µM)	0.013 µg/mL (≈ 0.0278 µM)	0.78 µg/mL (≈ 1.67 µM)	0.05 µg/mL (≈ 0.107 µM)	0.025 µg/mL (≈ 0.0534 µM)	1.56 µg/mL (≈ 3.33 µM)	0.39 µg/mL (≈ 0.834 µM)	0.025 µg/mL (≈ 0.0534 µM)	1.56 µg/mL (≈ 3.33 µM)	0.05 µg/mL (≈ 0.107 µM)	0.78 µg/mL (≈ 1.67 µM)	0.2 µg/mL (≈ 0.428 µM)						0.7 point	2/3	0 point	Ear abnormality (frequency) ([2]; 24 hours after exposure): 0/3; Ear abnormality (point) ([2]; 48 hours after exposure): 0 point; Ear abnormality (frequency) ([2]; 48 hours after exposure): 0/3
CCNC1CN(c2c(F)cc3c(=O)c(C(=O)O)cn(-c4nc(N)c(F)cc4F)c3c2Br)C1 [Compound 1, 1-(6-amino-3,5-difluoropyridin-2-yl)-8-bromo-7-(3-ethylaminoazetidin-1-yl)-6-fluoro-4-oxo-1,4-dihydroquinoline-3-carboxylic acid]	0.025 µg/mL (≈ 0.0488 µM)	0.013 µg/mL (≈ 0.0254 µM)	0.39 µg/mL (≈ 0.761 µM)	0.025 µg/mL (≈ 0.0488 µM)	0.013 µg/mL (≈ 0.0254 µM)	1.56 µg/mL (≈ 3.05 µM)	0.78 µg/mL (≈ 1.52 µM)	0.025 µg/mL (≈ 0.0488 µM)	1.56 µg/mL (≈ 3.05 µM)	0.05 µg/mL (≈ 0.0976 µM)	0.39 µg/mL (≈ 0.761 µM)	0.1 µg/mL (≈ 0.195 µM)	22800 ng·h/mL	4820 ng/mL	1 h	3.8 h	19.8%	0 point	0/3	0 point	bioavailability ([1]; male, beagle, dog, serum, po, 10 mg/kg, administered orally, calculated from an AUC up to 24th hour after administration): 78%; Ear abnormality (frequency) ([2]; 24 hours after exposure): 0/3; Ear abnormality (point) ([2]; 48 hours after exposure): 0 point; Ear abnormality (frequency) ([2]; 48 hours after exposure): 0/3; MIC [3]: 0.03 µg/mL (≈ 0.0586 µM); MIC [4]: 0.12 µg/mL (≈ 0.234 µM)
CCNC1CN(c2c(F)cc3c(=O)c(C(=O)O)cn(-c4nc(N)c(F)cc4F)c3c2Br)C1.O=C(O)/C=C\C(=O)O [Compound 2, 1-(6-amino-3,5-difluoropyridin-2-yl)-8-bromo-7-(3-ethylaminoazetidin-1-yl)-6-fluoro-4-oxo-1,4-dihydroquino line-3-carboxylic acid maleate]													17600 ng·h/mL	3730 ng/mL	1 h	4.8 h	17.4%				
